Patent US5482954A, “Signal transduction inhibitor triazole and diazole compounds” (priority 1994, dated 1996)

Tests used:
[1] = test system: 5R ras-transfected rat embryo fibroblasts; assay: AMF-stimulated cell motility; assay type: cell-based
Description: (§1) The cell motility assay has been described. See, Stracke et al., Biochem. Biophys. Res. Comm., 146:339-345 (1987). Cells from the A2058 human melanoma line which was maintained in subconfluent culture were harvested with trypsin-EDTA, and were allowed to recover for 1 hr at room temperature. Cells from the 5R H-ras transformed (diploid) rat embryo fibroblast line were harvested with 2 mM EDTA in PBS without divalent cations. Cells were resuspended in serum-free media containing 0.1% BSA. This DMEM/0.1% BSA was used as the control for all subsequent assays. The assays were performed in triplicate using a 48-well chemotaxis chamber with 8μ Nucleopore, type IV collagen-coated filters. The chambers were incubated at 37° C. for 4 hr, stained and placed onto glass slides with the original cell side up so that the cell pellet could be wiped from the surface. Cells that had migrated through the pores were trapped between glass and membrane and could be quantitated by laser densitometry.
(§2) Compound 1 was preincubated with the cells for various periods of time, added at the start of the assay, or added later. Additionally, compound 1 remained present during the motility assay. The cells were assayed for their motile response to AMF. AMF stimulates random and directed locomotion of 5R ras-transfected rat embryo fibroblasts and A2058 human melanoma cells. […] Cell viability determined by trypan blue exclusion averaged greater than 96%. Cells exposed to various concentrations of compound 1 were tested for their response to AMF vs. control. Percent stimulated motility (in densitometer units) is defined as: […]
(§3) (AMF stimulated-control)Compound 1 /(AMF stimulated-control)untreated

[2] = test system: A2058 human melanoma cells; assay: AMF-stimulated cell motility; assay type: cell-based
Description: as §1, §2, §3

OVCAR3 cells [3] = assay: Laminin-stimulated cell motility; assay type: cell-based, human; details: 1 μg/mL, 18 hr preincubation; laminin 100 μg/mL
A2058 cells [4] = assay: Clonogenic (crystal violet) proliferation assay; assay type: cell-based, human; details: 0-10 μg/mL, 96 hr
Description: (§4) Proliferation: Two independent methods were used to determine the effect of various compounds on cellular proliferation. The first method utilized [^3 H]thymidine labelling and was performed using A2058, 5R, OVCAR3, and MDA-231 cells. Because the potential effect of compound 1 on thymidine metabolism was unknown, a clonogenic assay was also used. This assay utilized crystal violet nuclear staining.
(§5) For the clonogenic assay, aliquots of 50,000 cells per well (24 well plates) were grown under standard tissue culture conditions in the presence of increasing doses or test compound (0-10 μg/mL) or vehicle control. After 96 hr, the cells were gently washed with PBS, fixed, and stained with 0.5% crystal violet nuclear stain in 20% methanol. Excess stain was removed with tap water and bound stain was eluted with an equal volume solution of 01N sodium citrate (pH 4.2) and absolute ethanol. Optical density (O.D.) of eluted crystal violet stain was determined at 540 nm. The results of dose-dependent inhibition of tumor cell proliferation by compound 1 are shown in FIG. 5, in which the data are expressed as percent of untreated control cell proliferation for each cell type. The degree of inhibition varied with the cell type and was maximal (76%) for the A2058 cell line.

MDA-231 cells = assay: Clonogenic (crystal violet) proliferation assay; assay type: cell-based, human; details: 0-10 μg/mL, 96 hr
Description: as §4, §5

OVCAR3 cells [5] = assay: Clonogenic (crystal violet) proliferation assay; assay type: cell-based, human; details: 0-10 μg/mL, 96 hr
Description: as §4, §5

A2058 cells [6] = assay: AMF-stimulated phosphatidyl inositol metabolism; assay type: cell-based, human
Description: This example illustrates the effect of compound 1 on the generation and release of phosphatidyl inositol from either A2058 cells (stimulated with autocrine motility factor) or CHOm5 cells (stimulated with carbachol).
A2058 cells were incubated with compound 1 (1.0 μg/mL) for 24 hr, then labelled overnight with [^3 H]inositol in serum-free, low inositol IMEM (LI-IMEM). Cells were then harvested, suspended, and incubated in LI-IMEM containing 10 mM LiCl for 30 min. The metabolism assay was initiated by the addition of either AMF or serum-free medium control to aliquots of 100,000 cells. The aliquots were incubated at 37° C. for 15 and 120 min, then washed twice with ice-cold PBS and extracted with chloroform:methanol (1:2). The total inositol phosphates were removed using Dowex anion exchange column chromatography eluted with ammonium formate 1.0 M/formic acid 0.1 M buffer. Total inositol phosphates and unincorporated total intracellular [^3 H]inositol were quantitated by […]. Data are expressed as a ratio of total inositol phosphates to total unincorporated [^3 H]inositol.

[7] = test system: A2058 human melanoma tumors; assay: Oral treatment of subcutaneous xenografts; assay type: in vivo, nude mice
Description: This example illustrates the antitumor effect of compound 1 when administered orally to mice, following either subcutaneous inoculation of the mice with A2058 cells at two flank sites, intraperitoneal injection of OVCAR3 cells, or tail vein inoculation with 5R cells.
The antitumor effect of compound 1 was tested on groups of 10 nude mice which had been inoculated subcutaneously at two flank sites with 10^6 A2058 cells. Measureable tumors were observed within 14 days. On day 3 following tumor introduction, compound 1, diluted in PEG-400, or PEG-400 vehicle alone, was administered by gavage. Animals were monitored daily for toxicity, behavior, and extent of tumor. Weights and bidirectional measurements of A2058 tumor masses were determined three times per week.

[8] = Side effects in phase I clinical study; assay type: in vivo, human; details: oral, to date
Description: Seven patients with solid tumor metastasis are undergoing treatment via oral administration of compound 1 under the FDA approved phase I clinical study. […] PT# is patient number. Response is the sum of the products of bidirectional measurements.

[9] = test system: signal transduction and tumor growth; assay: Biological and biochemical assays, summary; assay type: cell-based; details: summary of all assays
Description: Compound 1 was inhibitory for the biological and biochemical assays.

[10] = Cell viability by trypan blue exclusion; assay type: cell-based; details: a2058 and 5r cells; average
Description: as §2

[11] = overnight preincubation, AMF stimulation

Question: What does the source list for NC(=O)c1nnn(Cc2cc(Cl)c(C(=O)c3ccc(Cl)cc3)c(Cl)c2)c1N [Compound 1]?
Answer: inhibition of AMF-stimulated tumor cell motility ([1]; 0.03-10 μg/ml): inhibited AMF-stimulated tumor cell motility in a dose dependent manner; decrease in stimulated motility [1, 11]: up to 55%; inhibition of AMF-stimulated tumor cell motility ([2]; 0.03-10 μg/ml): inhibited AMF-stimulated tumor cell motility in a dose dependent manner; inhibition of motility, combination of 1 and PT vs either alone ([2]; 1 (1 μg/ml) + PT (0.1 μg/ml), data not shown, cell line not stated): did not result in greater inhibition of motility than either drug alone; decrease in stimulated motility [2, 11]: up to 55%; inhibition of motility ([2]; same dose as PI assay (1.0 μg/mL)): 45%; inhibition of spontaneous and laminin-stimulated motility (OVCAR3 cells [3]): inhibited both spontaneous motility; maximal inhibition of tumor cell proliferation (A2058 cells [4]): 76%; inhibition of tumor cell proliferation (MDA-231 cells): dose dependent inhibition of tumor cell proliferation; inhibition of tumor cell proliferation (OVCAR3 cells [5]): dose dependent inhibition of tumor cell proliferation; inhibition of AMF-stimulated phosphatidyl inositol hydrolysis (A2058 cells [6]; 1.0 μg/mL, 24 hr): significantly inhibited; inhibition at 1 µg/mL (A2058 cells [6]; Homo sapiens, A2058, 1.0 μg/mL, 24 hr, read-out: inhibition of AMF-stimulated phosphatidyl inositol hydrolysis): ~45%; effect on unstimulated cells (inositol phosphates) (A2058 cells [6]; treated, unstimulated cells): no appreciable effect; gross toxicity ([7]; 35 days of administration, and at necropsy): No gross toxicity; tumor necrosis ([7]; histologic evaluation of necropsy specimens): Marked necrosis; tumor growth ([7]; oral gavage from day 3): Significant growth arrest; tumor incidence ([7]; oral gavage from day 3): marked delay in tumor incidence; abnormalities of blood cellular composition [8]: no abnormalities of blood cellular composition; bone marrow depression (white cell counts) [8]: do not show any bone marrow depression; liver or kidney function abnormalities [8]: do not show any liver or kidney function abnormalities; neurological toxicity, hair loss or electrolyte imbalances [8]: no neurological toxicity, hair loss or electrolyte imbalances; inhibition in the biological and biochemical assays [9]: inhibitory; viability [10]: > 96%
